Data taken from article PMC7490411 (Signal Transduction and Targeted Therapy, 2020).

Columns and labels:
Experiment in all cases: KINOMEscan
Format in all cases: binding
Details in all cases: 1000 nM
LIMK2 = system: LIMK2
GSK3A = system: GSK3A
SRC = system: SRC
PRKCE = system: PRKCE
PIK3CD = system: PIK3CD
MARK1 = system: MARK1
MRCKA = system: MRCKA
CTK = system: CTK
CSNK1A1L = system: CSNK1A1L
CDK2 = system: CDK2
EGFR = target: T1, EGFR (Homo sapiens, UniProt P00533)
T1 construct: purchased Invitrogen (Carlsbad, CA, USA)

ACVR1B = system: ACVR1B
MST3 = system: MST3
NEK3 = system: NEK3
ULK2 = system: ULK2
MAPKAPK5 = system: MAPKAPK5
[1] = system: ABL1(T315I)-phosphorylated
TLK2 = system: TLK2
[2] = system: ABL1(H396P)-phosphorylated
RIOK1 = system: RIOK1
SIK = system: SIK
FLT3 = system: FLT3
MAP4K2 = system: MAP4K2
IKK-beta = system: IKK-beta
PRKCQ = system: PRKCQ
ACVR2A = system: ACVR2A
DCAMKL1 = system: DCAMKL1
ALK(C1156Y) = system: ALK(C1156Y)
HIPK1 = system: HIPK1
SBK1 = system: SBK1
RIPK4 = system: RIPK4
FLT3(ITD) = system: FLT3(ITD)
PAK3 = system: PAK3
CAMK1D = system: CAMK1D
FLT3(D835H) = system: FLT3(D835H)
RIOK2 = system: RIOK2
BTK = target: T2, BTK (Homo sapiens, UniProt Q06187)
T2 construct: purchased Invitrogen (Carlsbad, CA, USA)

NLK = system: NLK
CDC2L2 = system: CDC2L2
DMPK = system: DMPK
TBK1 = system: TBK1
PIK4CB = system: PIK4CB
KIT(L576P) = system: KIT(L576P)
NEK1 = system: NEK1
SRPK2 = system: SRPK2
DDR2 = system: DDR2
CDKL5 = system: CDKL5
SYK = system: SYK
[3] = system: ABL1(F317I)-nonphosphorylated
RET(V804M) = system: RET(V804M)
BMPR1B = system: BMPR1B
NIM1 = system: NIM1
FGFR1 = system: FGFR1
STK36 = system: STK36
[4] = system: RPS6KA5(Kin.Dom.1-N-terminal)
BRAF(V600E) = system: BRAF(V600E)
BIKE = system: BIKE
[5] = system: ABL1(H396P)-nonphosphorylated
MAP3K3 = system: MAP3K3

T1 sequence (P00533 25-1210): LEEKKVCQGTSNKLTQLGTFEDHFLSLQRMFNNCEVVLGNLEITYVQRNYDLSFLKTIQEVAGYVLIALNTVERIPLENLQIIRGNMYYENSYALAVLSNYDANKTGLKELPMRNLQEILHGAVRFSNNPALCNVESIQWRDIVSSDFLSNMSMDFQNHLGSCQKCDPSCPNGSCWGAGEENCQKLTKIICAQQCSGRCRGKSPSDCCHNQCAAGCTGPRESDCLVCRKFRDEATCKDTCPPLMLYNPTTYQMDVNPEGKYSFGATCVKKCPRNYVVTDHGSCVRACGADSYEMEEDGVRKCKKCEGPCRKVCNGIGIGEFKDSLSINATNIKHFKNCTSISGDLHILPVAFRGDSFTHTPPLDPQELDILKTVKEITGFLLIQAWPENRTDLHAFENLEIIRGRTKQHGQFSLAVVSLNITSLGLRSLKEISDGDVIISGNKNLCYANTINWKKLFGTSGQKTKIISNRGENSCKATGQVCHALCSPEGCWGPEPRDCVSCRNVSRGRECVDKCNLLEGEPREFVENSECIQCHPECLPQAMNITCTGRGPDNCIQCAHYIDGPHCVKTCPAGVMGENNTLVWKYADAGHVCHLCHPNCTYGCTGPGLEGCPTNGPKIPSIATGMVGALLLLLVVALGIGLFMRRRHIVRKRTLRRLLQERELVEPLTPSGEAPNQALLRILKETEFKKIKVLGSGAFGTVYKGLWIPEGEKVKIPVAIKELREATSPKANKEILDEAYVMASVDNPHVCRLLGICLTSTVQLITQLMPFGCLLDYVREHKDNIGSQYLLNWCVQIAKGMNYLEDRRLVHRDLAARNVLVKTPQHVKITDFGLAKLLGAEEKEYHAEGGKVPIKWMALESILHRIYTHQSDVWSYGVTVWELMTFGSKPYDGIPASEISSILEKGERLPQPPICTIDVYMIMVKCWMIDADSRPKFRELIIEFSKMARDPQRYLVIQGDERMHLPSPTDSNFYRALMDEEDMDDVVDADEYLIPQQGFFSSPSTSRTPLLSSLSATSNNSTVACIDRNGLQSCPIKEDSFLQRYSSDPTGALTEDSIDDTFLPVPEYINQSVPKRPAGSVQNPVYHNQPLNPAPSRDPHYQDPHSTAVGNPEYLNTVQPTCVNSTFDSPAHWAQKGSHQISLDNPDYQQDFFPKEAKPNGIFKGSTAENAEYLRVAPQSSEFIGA
T2 sequence (Q06187 whole entry): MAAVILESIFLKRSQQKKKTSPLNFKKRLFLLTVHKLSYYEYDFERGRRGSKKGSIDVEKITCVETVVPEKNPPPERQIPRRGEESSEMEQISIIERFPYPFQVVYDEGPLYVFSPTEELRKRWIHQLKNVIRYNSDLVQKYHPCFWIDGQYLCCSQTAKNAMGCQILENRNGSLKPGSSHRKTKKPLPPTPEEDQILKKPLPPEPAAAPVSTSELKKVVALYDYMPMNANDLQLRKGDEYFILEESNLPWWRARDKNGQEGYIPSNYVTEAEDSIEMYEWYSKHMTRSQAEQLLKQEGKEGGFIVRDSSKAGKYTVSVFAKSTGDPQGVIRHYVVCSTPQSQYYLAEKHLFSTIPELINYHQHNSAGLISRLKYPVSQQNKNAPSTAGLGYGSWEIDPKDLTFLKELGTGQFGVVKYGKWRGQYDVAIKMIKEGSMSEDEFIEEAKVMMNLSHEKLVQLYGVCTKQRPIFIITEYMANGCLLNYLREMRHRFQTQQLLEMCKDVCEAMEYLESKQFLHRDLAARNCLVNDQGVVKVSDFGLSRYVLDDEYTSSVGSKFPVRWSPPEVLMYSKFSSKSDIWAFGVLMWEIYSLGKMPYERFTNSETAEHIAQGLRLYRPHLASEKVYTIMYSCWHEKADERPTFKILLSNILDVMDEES

C=CC(=O)Nc1cc(Nc2cc(-c3cccc(NC(=O)c4cc5c(s4)CCCC5)c3C)cn(C)c2=O)ccc1N1CCN(CC)CC1 [CHMFL-BTK-85]
Percent Control (LIMK2): 100%
Percent Control (GSK3A): 94%
Percent Control (SRC): 77%
Percent Control (PRKCE): 93%
Percent Control (PIK3CD): 100%
Percent Control (MARK1): 100%
Percent Control (MRCKA): 100%
Percent Control (CTK): 99%
Percent Control (CSNK1A1L): 100%
Percent Control (CDK2): 85%
kinase binding remaining (percent of control) at 1 µM (EGFR): 58%
Percent Control (ACVR1B): 95%
Percent Control (MST3): 66%
Percent Control (NEK3): 80%
Percent Control (ULK2): 100%
Percent Control (MAPKAPK5): 100%
Percent Control [1]: 100%
Percent Control (TLK2): 100%
Percent Control [2]: 85%
Percent Control (RIOK1): 100%
Percent Control (SIK): 99%
Percent Control (FLT3): 80%
Percent Control (MAP4K2): 100%
Percent Control (IKK-beta): 100%
Percent Control (PRKCQ): 80%
Percent Control (ACVR2A): 97%
Percent Control (DCAMKL1): 100%
Percent Control (ALK(C1156Y)): 100%
Percent Control (HIPK1): 75%
Percent Control (SBK1): 100%
Percent Control (RIPK4): 100%
Percent Control (FLT3(ITD)): 99%
Percent Control (PAK3): 100%
Percent Control (CAMK1D): 100%
Percent Control (FLT3(D835H)): 100%
Percent Control (RIOK2): 100%
percent of control binding at 1 µM (BTK): 0.9%
Percent Control (NLK): 100%
Percent Control (CDC2L2): 89%
Percent Control (DMPK): 92%
Percent Control (TBK1): 72%
Percent Control (PIK4CB): 100%
Percent Control (KIT(L576P)): 79%
Percent Control (NEK1): 95%
Percent Control (SRPK2): 100%
Percent Control (DDR2): 100%
Percent Control (CDKL5): 100%
Percent Control (SYK): 100%
Percent Control [3]: 99%
Percent Control (RET(V804M)): 68%
Percent Control (BMPR1B): 100%
Percent Control (NIM1): 100%
Percent Control (FGFR1): 86%
Percent Control (STK36): 99%
Percent Control [4]: 90%
Percent Control (BRAF(V600E)): 100%
Percent Control (BIKE): 100%
Percent Control [5]: 92%
Percent Control (MAP3K3): 100%
